Measured values taken from publication PMC5017749, “Preclinical Metabolism, Pharmacokinetics and In Vivo Analysis of New Blood-Brain-Barrier Penetrant Fingolimod Analogues: FTY720-C2 and FTY720-Mitoxy” (PLoS ONE, 2016).
Where two headings read alike, the source gives them in different places.

Tests used:
[1] = Plasma and brain pharmacokinetics after single oral or intravenous dosing of mice; assay type: in vivo; conditions: for half-life / Tmax: male; for half-life: iv; for oral bioavailability: single oral dose
Protocol: (§1) The objectives of this study were to evaluate the pharmacokinetic profiles of FTY720-C2 and FTY720-Mitoxy following single oral and intravenous (IV) dosing of male mice and to determine blood and tissue levels of both compounds at various postdose time points. Male C57BL/6 mice were 8.4 weeks of age and weighed 20.6–24.8 g on the day of dose administration. Each animal was identified by a unique number via an ear tag with a matching cage tag. Mice were administered (two mice per time point) a single equivalent molar dose of either FTY720-C2 (1 mg/kg) or FTY720-Mitoxy (2 mg/kg) by oral or intravenous administration. As the molecular weight of FTY720-Mitoxy (704.72 g/mol) is ~ two times greater than that of FTY720-C2 (349.51 g/mol), the dose level of FTY720-Mitoxy was double that of FTY720-C2. Details of the design showing group assignments, dose groups, dose levels, as well as blood collection and necropsy time points are shown in Table 2. At the appropriate time points after dosing and blood sample collection for bioanalysis, animals were euthanized by CO2 inhalation until unresponsive, followed by decapitation. Brains were rapidly harvested, rinsed with ice cold saline, blotted dry and bisected along the mid-line. The left and right hemispheres of the brain were weighed separately. Each was placed in separate tubes, immediately flash frozen in liquid nitrogen and stored at -70°C prior to evaluation. All samples were labeled with the test facility study number, animal identification number, dose group, date, collection interval, and tissue identity (left or right brain hemisphere). Adrenal glands from each mouse were also collected and flash frozen.
FTY720-C2 and FTY720-Mitoxy concentrations in plasma and brain were determined by LC-MS/MS. Samples were first prepared by liquid-liquid extraction. To 50 μL of plasma or brain homogenate were added 50 μL of 0.1 M NaOH and 50 μL of internal standard solution (C17 sphingosine) in ethanol. Analytes were then extracted into 1 mL of methyl tert-butyl ether:dichloromethane mixture (75:25, v/v) by vortexing for 1 hr and centrifuged. Supernatants were evaporated to dryness under nitrogen. Residues were reconstituted in 150 μL of 50% methanol in water and spin filtered before applied onto XBridge C18 column (3.5-μm particle; Waters, Milford, MA) with a SecurityGuard C18 guard column (4.0 × 2.0 mm; Phenomenex Inc.). Separations were accomplished with a gradient of 0.1% acetic acid in water (v/v) versus 0.1% acetic acid in acetonitrile:methanol (75:25, v/v) at a rate of 0.5 mL/min. The eluents were further applied into an equipped API 4000 QTrap mass spectrometer (AB Sciex, Foster City, CA) with electrospray ionization (ESI) interface by two coupled LC-10 AT pumps, and monitored in multiple reaction monitoring (MRM) mode with precursor to product ion pairs for C17 sphingosine, FTY720-C2, and FTY720-Mitoxy as following: m/z 286.3 to 268.2, m/z 350.3 to 255.2, and m/z 624.4 to 289.2, respectively.
Pharmacokinetic analysis was conducted using WinNonlin Version 6.2 (Pharsight, Mountain View CA), operating as a validated software system. Non-compartmental analysis was conducted using a bolus intravenous administration model for IV dosing and an extravascular administration model for oral dosing. The peak plasma concentration, time to achieve peak plasma concentration, half-life, mean residence time, and area under the plasma or brain concentration-time curve (Cmax, Tmax, T1/2, and AUC) were calculated from mean animal plasma and brain concentrations. Nominal blood collection times were used for pharmacokinetic calculations.

PP2A = experiment: Protein phosphatase (PP2A) assay in adrenal glands of treated mice; assay type: in vivo, male C57BL/6 mice; conditions: for increase of PP2A activity in mouse adrenal gland: as compared to untreated controls, route not given; for increase of PP2A activity in adrenal gland: up to 48 hr postdose, vs untreated control mice
Protocol: as §1
Adrenal glands from treated mice were homogenized in buffer containing 20 mM imidazole-HCl, 2 mM EDTA, 2 mM EGTA, plus protease inhibitors, at 4°C. The homogenates were centrifuged to remove particulates followed by free phosphate removal on MicrospinTM-G-25 columns (GE Healthcare). Aliquots of supernatants were incubated in 4-Nitrophenyl-phosphate (pNPP) buffer consisting of 50 mM Tris-HCl, pH 7.0, 0.1 mM CaCl2 with threonine-phosphopeptide (KRpTIRR) substrate. The reactions were run for 10 min at 30°C and stopped by placing samples on ice. Phosphate levels were determined by measuring absorbance at 650 nm using a Multiskan Spectrum plate reader (Thermo Scientific, Pittsburgh, PA) and were compared to freshly prepared standards as previously described, but using a malachite green solution prepared according to Fathi et al.. Samples from two mice per time point (n = 2) were assayed in triplicate to confirm technical fidelity.

[2] = IV administration, sampling 5 min, 8, 24, 48 hr
[3] = oral administration, 1 mg/kg, first sampling time point

SMILES	detected in plasma and brain up to (postdose) [1, 2]	time to penetrate the blood-brain-barrier after delivery ([1]; IV dosing)	Tmax / time of highest concentration in brain ([1]; IV dosing, FTY720-C2 1 mg/kg or FTY720-Mitoxy 2 mg/kg, first sampling time point)	half-life ([1]; mouse, in vivo, 2 mg/kg, IV dosing, 2 mg/kg, read-out: brain elimination half-life (converted))	half-life ([1]; mouse, in vivo, 2 mg/kg, IV dosing, 2 mg/kg, read-out: plasma elimination half-life (converted))	half-life ([1]; mouse, in vivo, 2 mg/kg, mice, IV, plasma and brain, read-out: half-lives)	Tmax ([1]; mouse, in vivo, IV dosing, FTY720-C2 1 mg/kg or FTY720-Mitoxy 2 mg/kg, first sampling time point, read-out: Tmax / time of highest concentration in plasma (converted))	partitioning to brain ([1]; mice)	oral bioavailability ([1]; mice)	detection in plasma or brain following oral dosing ([1]; oral, 2 mg/kg)	increase of PP2A activity in mouse adrenal gland (PP2A)	increase of PP2A activity in adrenal gland (PP2A; single oral dose (FTY720-C2 1 mg/kg, FTY720-Mitoxy 2 mg/kg))	brain concentrations compared with plasma at 8 hr postdose ([1]; after both IV and oral dosing, 8 hr postdose)	Tmax ([1]; C57BL/6, mouse, brain, IV dosing, FTY720-C2 1 mg/kg or FTY720-Mitoxy 2 mg/kg, first sampling time point, read-out: Tmax / time of highest concentration in brain (converted))	Tmax ([1]; C57BL/6, mouse, plasma, IV dosing, FTY720-C2 1 mg/kg or FTY720-Mitoxy 2 mg/kg, first sampling time point, read-out: Tmax / time of highest concentration in plasma (converted))	time of highest concentration in brain [1, 3]	time of highest concentration in plasma [1, 3]	detected in plasma and brain up to (postdose) ([1]; oral administration, sampling 1, 8, 24, 48 hr)	increase of PP2A activity in adrenal gland (PP2A; single IV dose (FTY720-C2 1 mg/kg, FTY720-Mitoxy 2 mg/kg))
CCCCCCCCc1ccc(CCC(CO)(CO)NC(=O)CC[P+](c2ccccc2)(c2ccccc2)c2ccccc2)cc1 [FTY720-Mitoxy, N-(1-hydroxy-2-(hydroxymethyl)-4-(4-octylphenyl)butan-2-yl)-3’-triphenylphosphoniumpropanamide]	48 h	≤ 5 min	5 min	106 min	56.4 min	< 120 min	5 min	preferentially partition to brain	not orally bioavailable	not detected	~ 2 fold	no stimulating effect	–	–	–	–	–	–	–
CCCCCCCCc1ccc(CCC(CO)(CO)NC(C)=O)cc1 [FTY720-C2, N-(1-hydroxy-2-(hydroxymethyl)-4-(4-octylphenyl)butan-2-yl)acetamide]	8 h	≤ 5 min	–	–	–	–	–	preferentially partition to brain	orally bioavailable	–	~ 2 fold	–	much higher	5 min	5 min	1 h	1 h	8 h	2 fold
